One experiment addresses thrombin (Homo sapiens, UniProt P00734). To be noted: cited from earlier work.
In a further experiment the test system is plasma. Nature of the experiment: activated partial thromboplastin time (APTT) of plasma from patients recovered from heparin-induced thrombocytopenia. To be noted: concentrations used in the platelet studies, FIGS. 12A and 12B. Further details: species or system human.

Like-named read-outs stand apart in the source and are kept apart here.

Procedure for plasma: We isolated whole blood from patients who had recovered from heparin-induced thrombocytopenia. We then centrifuged the blood at 4° C. for 15 minutes at 2,000× g in a Sorval rotor to obtain plasma. […] We measured APTT semi-automatically using a Coagamate XC (General Diagnostics Organon Teknika).

For Hirudin, the Kd is around 0.02 nM at thrombin (overall tight binding, read-out: Kd, binding to thrombin in a 1:1 stoichiometric complex) and around 10 nM at thrombin (site separate from the catalytic site, read-out: Kd, "low" affinity site on the thrombin molecule). For heparin, the “prolongation of APTT” value with plasma was “sufficient to prolong APTT into the desired therapeutic range”.

One may read the Kd as a measure of binding affinity in units of concentration.
